US5306620A, “Antibodies that bind to a ligand-induced binding site on integrin and induce integrin activation” (The Scripps Research Institute, priority 1990, dated 1994)
Each block holds one molecule with its values, some of them ahead of it. Residues, ends and D or L forms follow the SMILES beside them.

What was measured:
[1] = biological target: T1, GPIIb-IIIa on platelets (Homo sapiens, UniProt P05106+P08514); assay: PAC1-binding assay (FACS) on platelets; type: cell-based
T1 construct: endogenous in cells; host or cells: platelets
Protocol: (§1) Antibody binding to cells was analyzed by flow cytometry, also referred to as fluorescence-activated cell sorting (FACS). Cells for flow cytometric analysis were harvested with 3.5 mM EDTA and an aliquot of 5×10^5 cells was pelleted, resuspended in media or Tyrodes buffer containing a specific first antibody, and incubated for 20 minutes on ice with or without peptide ligands. Cells were pelleted, washed once, and incubated for 20 minutes with the second antibody, FITC-conjugated goat anti-mouse IgG (Tago, Burlingame, Calif.). Cells were then pelleted, resuspended in 0.5 ml media or Tyrodes and analyzed on a FACS IV analyzer (Becton-Dickinson, San Jose, Calif.).
In the PAC1-binding assay for integrin-activating antibody, the activating antibody was admixed with an integrin binding cell at a concentration of about 5 uM antibody.

[2] = biological target: T2, αIIb β3 on A5 cells (Homo sapiens, UniProt P05106+P08514); assay: PAC1-binding assay (FACS) on A5 cells; type: cell-based; settings: for stimulation of PAC1 binding to A5 cells by platelet agonists: ADP 10 to 50 uM, thrombin 1 to 5 units/ml, epinephrine 4 to 200 uM, phorbol myristate acetate 5 to 500 nm, ionomycin 5 to 200 nM
T2 construct: expressed in transfected cells
Protocol: as §1
To that end, PAC1 antibody was fluoresceinated with FICT as described by Taub et al., J. Biol. Chem., 264:259-265 (1989) to form FITC-PAC1 and used directly in flow cytometry. Briefly, 5×10^5 cells were harvested and resuspended to 50 ul in Tyrodes buffer [Frelinger et al., J. Biol. Chem., 265:6346-6352 (1990)]containing 10 ug/ml of FITC-PAC1 in the presence or absence of additional agonists. After a 30 minute incubation at 37 degrees, the samples were diluted to 0.5 ml with Tyrodes and analyzed by flow cytometry as described in Example 7.
To evaluate the capacity of a monoclonal antibody to activate (i.e., to increase specific ligand binding affinity of) the integrin GPIIb-IIIa, an assay was developed that measures PACT binding to GPIIb-IIIa bearing cells using the FACS analysis as described in Example 7.
In the PAC1-binding assay for integrin-activating antibody, the activating antibody was admixed with an integrin binding cell at a concentration of about 5 uM antibody. For GPIIb-IIIa, a suspension of cells was prepared as in Example 9, activating antibody was admixed at 5 uM and the admixture was maintained for 20 minutes on ice. Thereafter FITC-PAC1 was added as described in Example 9 and the FACS protocol followed as in Example 9 to measure PAC1 binding.

[3] = biological target: T3, αIIb β3 on fixed platelets (Homo sapiens, UniProt P05106+P08514); assay: FITC-PAC1 binding to formaldehyde fixed platelets; type: cell-based; settings: 0.1% paraformaldehyde; PMA 50 nM, thrombin 1 unit/ml
T3 construct: To fix platelets, blood from a normal donor was centrifuged at 1,000 rpm; endogenous in cells; host or cells: platelets from blood of a normal donor, fixed with 0.1% paraformaldehyde
Protocol: The data described in Examples 10 and 11 established that Fab fragments of the activating antibodies P41 or Ab62 activate A5 cells and platelets to express αIIb β3 dependent receptors for fluid phase Fg and PAC1. To determine if this activation required intracellular signal transduction events, the capacity of these Fabs to induce PACI binding to formaldehyde fixed platelets was measured.
To fix platelets, blood from a normal donor was centrifuged at 1,000 rpm for 20 minutes and the resulting platelet rich plasma incubated with 2 ug/ml PGE1 and 1 mM theophylline for 15 minutes at room temperature followed by a 15 minute room temperature incubation with 0.1% paraformaldehyde. Fixed or normal platelets were then analyzed for FITC-PAC1 binding as described above in Example 9 in the presence of platelet agonists, or activating antibody P41.

[4] = biological target: T1, GPIIb-IIIa on platelets; assay: 125I-anti-LIBS1 binding to platelets in the presence of fibrinogen; settings: ADP (10 uM) stimulated platelets, 125I-anti-LIBS1 Fab 0.8 uM, 37 C 30 minutes; read-out: concentration of fibrinogen required for a half-maximal increase in anti-LIBS1 binding
Protocol: FIG. 1 illustrates anti-LIBS1 binding to platelets in the presence of ADP-stimulated fibrinogen as described in Example 4. Gel-filtered platelets (1 ×10^8 platelets/ml) were incubated with ^125 I-labeled anti-LIBS1 and varied concentrations of fibrinogen in the presence (ADP-stimulated) or absence (Control) of ADP (10 uM) for 30 minutes at 37 C. Platelet-bound radioactivity was separated from free by centrifuging the platelets through a layer of sucrose. Results are shown as the average of triplicate determinations +/ - one standard deviation.
Platelet rich plasma (PRP) was prepared as in Example 1A and divided into 2 aliquots. In one aliquot, the platelets were stimulated to express functional GPIIb-IIIa (fibrinogen receptors) by admixture of adenosine diphosphate (ADP) to a 10 uM final concentration to produce ADP-stimulatedplatelets. As a negative control, the second aliquot of PRP received no stimulus to produce non-stimulated platelets.
^125 I-labeled LIBSA (anti-LIBS1) Fab fragments, prepared by usual techniques from the ^125 I-labeled antibodies described in Example 2, were then admixed to a 0.8 uM final concentration with several samples of each of the PRP aliquots in the presence of varying concentrations of fibrinogen. […] The amount of ^125 I-anti LIBS1 associated with the pellet was then determined by gamma counting.

[5] = biological target: T2, αIIb β3 on A5 cells; assay: Soluble 125I-fibrinogen binding to A5 cells; type: cell-based
Protocol: FIG. 4 illustrates the equilibrium binding of soluble fibrinogen (Fg) to Ab-62 stimulated (activated) A5 cells when measured as in Example 10. A5 cells at a concentration of 10^6 per ml were admixed with 6 uM of Sepharose-purified AB-62 and maintained at 22 C. for 30 minutes to activate the integrin. Iodinated Fg was then admixed in varying concentrations from 0.01 to 1 nM. After a 60 minute maintenance period, the bound ligand was separated from free ligand by centrifugation through 0.3 ml of 20% sucrose. The amount of radiolabelled ligand associated with the cell pellet was determined by gamma detection. Saturable binding was measured in three different experiments and plotted versus the input Fg concentration to obtain an averaged profile. A Scatchard replot of the binding data was made and is shown in the insert.
An independent measure of integrin activation was made by detecting the ability of a cell containing the integrin to bind soluble fibrinogen (Fg) that had been labelled with ^125 I. Fg was isolated and labelled with ^125 I by standard methods as described by Marguerie et al., J. Biol. Chem., 255:154-161 (1980) to form ^125 I-Fg. Thereafter, the binding of ^125 I-Fg to transfected cells was assayed as described previously for platelets [Marguerie et al., J. Biol. Chem., 255:154-161 (1980)]. Binding was initiated by the addition of cells to radiolabelled Fg and incubation at 37 degrees for 30 minutes. Bound ligand was separated from free ligand by centrifugation through 0.3 ml of 20% sucrose and the amount of radiolabelled ligand associated with the cell pellet determined by gamma detection.
Background binding in this assay detected about 30,000 molecules of Fg bound per integrin bearing cell, whereas maximum Ab-62 stimulated A5 cells bound about 95,000 molecules of Fg per cell.
Equilibrium binding of soluble Fg to Ab-62 stimulated (activated) A5 cells was carried out to better characterize Fg binding. […] A5 cells (10^6 per ml) were incubated with 6 uM Sepharose-purified Ab-62 for 30 minutes at 22 C. to activate the integrin. Thereafter ^125 I-Fg was admixed in varying concentrations from 0.01 to 1 nM. After 60 minutes, bound Fg was measured as described above after centrifugation of the cells through sucrose.
Saturable binding was measured in three different experiments and plotted versus the input Fg concentration to obtain average data which is shown in FIG. 4. A Scatchard replot of the binding data was also made and is shown in the inset to FIG. 4. The binding of the various concentrations of Fg to activated A5 cells at steady state was analyzed by use of the "Ligand" computer program. […] There was day to day variation in the quantity of αIIb β3 expressed as measured by the binding of the 2G12 antibody (150,000 to 440,000 sites/cell) as well as in the number of Fg receptors (138,000 to 360,000 sites/cell). The ratio of Fg receptors to αIIb β3 expressed per cell on a given day was 0.83±0.05, thus virtually all of the recombinant αIIb β3 was functional with respect to Fg binding.

[6] = biological target: T4, solubilized αIIb β3 from platelets (Homo sapiens, UniProt P05106+P08514); assay: Solution phase assay: 125I-Fg binding to solubilized αIIb β3; type: biochemical
T4 construct: αIIb β3 was solubilized from platelets; endogenous in cells; host or cells: human platelets, octylglucoside lysate
Protocol: To determine if activating antibodies could activate αIIb β3 extracted away f rom the membrane milieu, the activating capacity to stimulate Fg binding in a solution phase was assayed. In this assay, αIIb β3 was solubilized from platelets, incubated in the presence or absence of activating monoclonal antibodies, and then bound to microtiter plates coated with a non-activating monoclonal anti β3 antibody.
The platelet pellet was resuspended and solubilized in ice cold 10 mM Hepes containing 150 mM NaCl, 50 mM octyl-B-D-glucoypyranoside (Calbiochem, La Jolla, Calif.) 1 mm PMSF, 50 ng/ml PGE, 1 mM CaCl2, 1 mM MgCl2, 50 uM leupeptin and 1 mg/ml N-ethylmaleimide (Sigma, St. Louis, Mo.) and centrifuged at 100,000 g for 30 minutes. […] The microtiter wells were incubated at 4 C. overnight, washed twice with a modified Tyrodes-Hepes buffer (2.5 mM Hepes, 150 mM NaCl, 2.5 mM KCl, 1 mM MgCl2, 12 mM NaHCO3, 5.5 mM D-glucose and 1 mg/ml BSA, pH 7.4) containing 50 MM octyl-B-D-glucopyranoside and 0.1 uM activating monoclonal antibody and then twice in Tyrodes-Hepes buffer only to form αIIb β3 -bound microtiter wells. […] Bound radioactivity was counted after 2 washes with Tyrodes-Hepes buffer.

T2 sequence (P08514 32-887 limits assumed): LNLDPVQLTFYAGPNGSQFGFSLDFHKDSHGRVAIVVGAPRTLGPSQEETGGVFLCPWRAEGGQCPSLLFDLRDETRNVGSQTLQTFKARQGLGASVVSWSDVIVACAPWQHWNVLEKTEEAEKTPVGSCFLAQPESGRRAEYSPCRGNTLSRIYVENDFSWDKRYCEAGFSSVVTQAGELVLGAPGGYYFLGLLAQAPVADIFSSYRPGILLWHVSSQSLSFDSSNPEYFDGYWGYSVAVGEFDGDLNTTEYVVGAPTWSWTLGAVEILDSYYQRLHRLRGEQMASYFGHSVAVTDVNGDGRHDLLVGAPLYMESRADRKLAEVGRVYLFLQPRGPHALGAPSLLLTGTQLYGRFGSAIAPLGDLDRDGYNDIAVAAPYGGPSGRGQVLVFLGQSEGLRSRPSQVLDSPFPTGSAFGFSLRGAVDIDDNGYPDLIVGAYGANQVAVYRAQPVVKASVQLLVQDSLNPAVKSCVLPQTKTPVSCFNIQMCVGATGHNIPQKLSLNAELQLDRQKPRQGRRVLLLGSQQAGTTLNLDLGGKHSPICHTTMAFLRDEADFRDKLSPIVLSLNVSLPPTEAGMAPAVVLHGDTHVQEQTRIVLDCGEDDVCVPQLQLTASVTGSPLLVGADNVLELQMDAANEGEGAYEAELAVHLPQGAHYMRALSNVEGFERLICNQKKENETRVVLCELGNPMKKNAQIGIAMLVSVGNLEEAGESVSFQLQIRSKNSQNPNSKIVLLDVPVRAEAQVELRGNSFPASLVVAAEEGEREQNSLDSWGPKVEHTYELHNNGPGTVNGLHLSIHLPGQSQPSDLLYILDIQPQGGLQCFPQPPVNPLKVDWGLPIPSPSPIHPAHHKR
T2 sequence (P08514 891-1039 partner limits assumed): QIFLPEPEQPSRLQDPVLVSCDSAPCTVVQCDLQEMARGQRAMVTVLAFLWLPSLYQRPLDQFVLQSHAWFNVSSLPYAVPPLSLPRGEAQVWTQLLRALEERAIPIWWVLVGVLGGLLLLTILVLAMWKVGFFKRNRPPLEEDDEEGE
T2 sequence (P05106 27-788): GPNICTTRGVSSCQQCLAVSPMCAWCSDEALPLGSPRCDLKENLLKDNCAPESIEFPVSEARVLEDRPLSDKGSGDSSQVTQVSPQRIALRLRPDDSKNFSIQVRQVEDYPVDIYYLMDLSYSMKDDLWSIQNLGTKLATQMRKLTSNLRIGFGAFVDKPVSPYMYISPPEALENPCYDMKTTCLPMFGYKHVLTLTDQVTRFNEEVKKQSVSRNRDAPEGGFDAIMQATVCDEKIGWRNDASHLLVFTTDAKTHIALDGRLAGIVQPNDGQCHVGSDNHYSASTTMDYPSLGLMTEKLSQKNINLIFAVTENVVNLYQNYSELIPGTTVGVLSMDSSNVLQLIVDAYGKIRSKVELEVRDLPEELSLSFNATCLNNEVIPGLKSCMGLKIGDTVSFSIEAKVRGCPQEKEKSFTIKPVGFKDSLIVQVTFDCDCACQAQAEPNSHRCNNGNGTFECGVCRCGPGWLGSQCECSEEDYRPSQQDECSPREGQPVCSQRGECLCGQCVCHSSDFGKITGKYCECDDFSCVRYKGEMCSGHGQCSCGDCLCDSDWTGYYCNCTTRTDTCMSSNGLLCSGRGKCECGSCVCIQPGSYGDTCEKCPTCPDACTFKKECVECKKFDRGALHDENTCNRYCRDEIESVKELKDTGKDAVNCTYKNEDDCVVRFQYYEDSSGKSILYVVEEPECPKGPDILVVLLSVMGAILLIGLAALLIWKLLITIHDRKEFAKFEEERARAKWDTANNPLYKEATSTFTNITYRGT
T1 sequence (P08514 32-887 limits assumed): as the sequence (P08514 32-887 limits assumed) above
T1 sequence (P08514 891-1039 partner limits assumed): as the sequence (P08514 891-1039 partner limits assumed) above
T1 sequence (P05106 27-788): as the sequence (P05106 27-788) above
T3 sequence (P08514 32-887 limits assumed): as the sequence (P08514 32-887 limits assumed) above
T3 sequence (P08514 891-1039 partner limits assumed): as the sequence (P08514 891-1039 partner limits assumed) above
T3 sequence (P05106 27-788): as the sequence (P05106 27-788) above
T4 sequence (P08514 32-887 limits assumed): as the sequence (P08514 32-887 limits assumed) above
T4 sequence (P08514 891-1039 partner limits assumed): as the sequence (P08514 891-1039 partner limits assumed) above
T4 sequence (P05106 27-788): as the sequence (P05106 27-788) above

Molecule: C[C@H](CCC(=O)O)C[C@H](C)C[C@H](C)C(=O)/C=C(\O)[C@H](C)C[C@H](C)C/C=C/[C@@H](C)[C@@H](O)[C@@H](C)[C@@H](O)C[C@@H]1CC[C@@](C)([C@H]2CC[C@@](C)([C@@H](C)O)O2)O1 [ionomycin]
stimulation of PAC1 binding to A5 cells by platelet agonists [2]: failed to stimulate

Molecule: Nc1ncnc2c1ncn2[C@@H]1O[C@H](COP(=O)(O)OP(=O)(O)O)[C@@H](O)[C@H]1O [ADP, adenosine diphosphate]
PAC1 staining of agonist activated platelets ([1]; ADP activated platelets, FACS): stained brightly
stimulation of PAC1 binding to A5 cells by platelet agonists [2]: failed to stimulate

Molecule: CCCCCCCCCCCCCC(=O)O[C@@H]1[C@@H](C)[C@@]2(O)[C@@H](C=C(CO)C[C@]3(O)C(=O)C(C)=C[C@@H]23)[C@@H]2C(C)(C)[C@]12OC(C)=O [phorbol myristate acetate]
stimulation of PAC1 binding to A5 cells by platelet agonists [2]: failed to stimulate
PAC1 response after fixation of platelets [3]: completely abrogated

Molecule: CNC[C@H](O)c1ccc(O)c(O)c1 [epinephrine]
stimulation of PAC1 binding to A5 cells by platelet agonists [2]: failed to stimulate

Other lines, results leading:

reaction of PAC1 with resting platelets ([1]; FITC-PAC1 10 ug/ml, no agonist): did not react
reaction of PAC1 with αIIb β3 in the A5 cell line ([2]; FITC-PAC1 10 ug/ml, no agonist): did not react
Molecule: PAC1

EC50 [4]: ~700 nM
non-saturable binding ([5]; Ab-62 activated A5 cells): 2.2±0.4×10^-3
receptor concentration ([5]; Ab-62 activated A5 cells, 10^6 per ml): 2.3 ± 0.3 nM
Fg binding sites per cell ([5]; Ab-62 activated A5 cells, Ligand program fit): 138,000 sites/cell
reversibility of Fg binding ([5]; Ab-62 stimulated A5 cells): > 75%
time for Fg binding to reach steady state ([5]; Ab-62 stimulated A5 cells): ≤ 30 min
number of Fg receptors ([5]; activated A5 cells, day to day variation): 138,000 to 360,000 sites/cell
ratio of Fg receptors to αIIb β3 expressed per cell ([5]; on a given day): 0.83±0.05
inhibition of Fg binding to stimulated captured receptor [6]: inhibition
Molecule: fibrinogen

stimulation of PAC1 binding to A5 cells by platelet agonists [2]: failed to stimulate
PAC1 response after fixation of platelets [3]: completely abrogated
Molecule: thrombin

inhibition of soluble 125I-Fg binding to activated A5 cells [5]: not inhibited
Molecule: N=C(N)NCCC[C@H](NC(=O)CN)C(=O)NCC(=O)N[C@@H](CCC(=O)O)C(=O)N[C@@H](CO)C(=O)N1CCC[C@H]1C(=O)O [GRGESP] (H-GRGESP-OH)
